Converted amounts (≈) assume the structure as drawn. Like-named read-outs stand apart in the source and are kept apart here. Square brackets hold non-standard residues; d marks the D form. Peptide text beside a SMILES is read from it.
Columns and labels:
in vitro [1] = type: cell-based; settings: human
Method: (§1) HeLa, HDF and NR8383 cells were respectively seeded at a densities of 1×10^4, 1×10^4 and 4×10^4 cells per well of a 96-well plate. Following overnight incubation, the cells were treated with 3.9 to 500 mg L^−1 of (IRIK)3-NH2 (SEQ ID NO: 21) and (VRVK)3-NH2 (SEQ ID NO: 20) for 24 h. For the adherent HeLa and HDF cell lines, the incubation media in each well were replaced with 100 μL of growth media and 10 μL of MTT solution (5 mg·ml^−1 in PBS). The cells were further incubated for 4 h at 37° C. according to the manufacturer's directions. Resultant formazan crystals formed in each well were solubilized using 150 μL of DMSO upon removal of growth media. A 100 μL aliquot from each well was then transferred to a new 96-well plate for determination of absorbance using a microplate spectrophotometer at wavelengths of 550 nm and 690 nm. Relative cell viability was expressed as [(A550−A690)sample/(A550−A690)control]×100%.

S. epidermidis [2] = settings: 18 h
[3] = test system: 5 microorganisms tested (S. epidermidis, S. aureus, E. coli, P. aeruginosa, C. albicans); assay: Mean MIC over the panel and selectivity index (Example 1); type: cell-based
Method: Red blood cells suspension incubated with PBS was used as negative control.

in vitro [4] = type: cell-based; settings: rat, NR8383 macrophage cells
Method: as §1
For the semi-adherent NR8383 cells, 20 μL of […]-BLUE® reagent was added into each well after treatment and the plate was incubated for a further 4 h. The fluorescence intensity readings of the wells were determined at excitation wavelength of 560 nm and emission wavelength of 590 nm using a microplate reader. […]

E. coli [5] = settings: 18 h
S. aureus [6] = settings: 18 h
C. albicans [7] = settings: 42 h
P. aeruginosa [8] = settings: 18 h
[9] = test system: LPS-stimulated NO production in NR8383 rat macrophage cell line; assay: Endotoxin neutralization assay (Griess nitrite); type: cell-based; settings: 125 mg L^−1 peptide, 100 ng mL^−1 LPS, 18 h
Method: Untreated cells and cells that were stimulated with LPS alone served as the […] controls, respectively. The amount of NO produced was estimated by quantifying the concentration of the stable NO metabolite nitrite in the isolated supernatant fractions using the Griess reagent (1% sulphanilamide, 0.1% N-1-napthylethylenediamine dihydrochloride, 5% phosphoric acid) according to the manufacturer's protocol. The absorbance was measured at 540 nm and nitrite concentrations were determined using a standard reference curve prepared from known concentrations of NaNO2 solutions.

[10] = test system: S. aureus and P. aeruginosa; assay: FE-SEM analysis of treated bacteria (Example 2); type: cell-based, Staphylococcus aureus, Pseudomonas aeruginosa; settings: 125 mg L^−1, 2 h
Method: S. aureus and P. aeruginosa suspensions at ˜3×10^8 CFU mL^−1 (100 μL) were separately incubated with an equal volume of broth containing final concentrations of 10% (by volume) of HPLC water or 125 mg L^−1 of IK8-all D in a 96 well-plate for 2 h. Eight replicates of each condition was pooled into a microfuge tube, pelleted down at 4000 rpm for 5 min, and rinsed twice with PBS. The samples were then fixed with 4% formaldehyde at room temperature for 20 min, followed by rinsing with deionized water. Dehydration of the cells was performed using a series of graded ethanol solutions (35, 50, 75, 90, 95 and 100%). The samples were mounted on a copper tape, allowed to air-dry and sputter coated with platinum for imaging using a FE-SEM setup (JEOL JSM-7400F, Japan).

[11] = test system: intracellular S. aureus in RAW264.7 mouse macrophages; type: cell-based, Staphylococcus aureus; settings: intracellular in RAW264.7 mouse macrophages, 8 h
Method: RAW264.7 cells were seeded at a density of 4×10^5 per well of a 12-well plate. Following an overnight incubation, the cells were infected for 1 h with 13.3 μL of processed bacteria (3.0×10^8 CFU mL^−1) to achieve a 10:1 multiplicity of infection. The cells were then rinsed twice with 1×PBS and incubated with 1 mL of fresh media containing 50 μg mL^−1 gentamicin for 45 min to eliminate extracellular bacteria. The media in each well were removed and the infected cells were incubated with fresh media containing 10% (by volume) water or various concentrations of IK8-all D (2, 3.9, 7.8, 15.6 and 31.3 mg L^−1) for up to 4 and 8 h. At the respective time points, the infected cells were trypsinized, rinsed twice with PBS and lyzed with 800 μL of sterile water with incubation at room temperature for 10 min, followed by 5 min sonication. The intracellular bacteria count was determined by plating serially diluted cultures onto LB agar and enumerated after 24 h.

[12] = test system: five microorganisms tested (S. epidermidis, S. aureus, E. coli, P. aeruginosa, C. albicans); type: cell-based; settings: 18 h
Method: After 18 h treatment of microorganisms with various concentrations of peptide (0.5×MIC, MIC and 2×MIC), the respective samples were subjected to a series of ten-fold dilutions and plated onto LB agar plates. The plates were then incubated overnight and counted for colony-forming units. A sample containing microbes treated with 10% (by volume) water was used as a control. Results are expressed as Log(CFU/mL) and as % Kill=[(cell count of control−survivor count of peptide-treated microbes)/cell count of control]×100.

[13] = test system: Methicillin-resistant S. aureus; settings: clinical isolate
S. epidermidis [14] = settings: 18 h; remark: listed apart in the source
[15] = test system: clinically isolated Mycobacterium tuberculosis
S. aureus [16] = settings: 18 h; remark: listed apart in the source
[17] = test system: 5 microorganisms tested (S. epidermidis, S. aureus, E. coli, P. aeruginosa, C. albicans); assay: Mean MIC over the panel and selectivity index (Example 2)
[18] = test system: clinically isolated drug resistant microorganisms; assay: MBC comparison over clinical isolates; type: cell-based; settings: antibacterial activities
S. aureus [19] = type: cell-based, Staphylococcus aureus; settings: passage 20
in vitro [20] = type: cell-based; settings: mouse, RAW264.7 macrophage cells
Method: RAW264.7 and WI-38 cells were respectively seeded at a density of 1.5×10^4 and 1×10^4 per well of a 96-well plate. Following overnight incubation, the cells were treated with 1.0 to 125 mg L^−1 of IK8-all D for 48 h. Subsequently, the incubation media in each well were replaced with 100 μL of growth media and 10 μL of MTT solution (5 mg·ml^−1 in PBS) and the cells were incubated for 4 h at 37° C. according to the manufacturer's directions. Resultant formazan crystals formed in each well were solubilized using 150 μL of DMSO upon removal of growth media. A 100 μL aliquot from each well was then transferred to a new 96-well plate for determination of absorbance using a microplate spectrophotometer at wavelengths of 550 nm and 690 nm. Relative cell viability was expressed as [(A550−A690)sample/(A550−A690)control]×100%.

P. aeruginosa [21] = settings: 18 h; remark: listed apart in the source
C. neoformans = assay: MBC against clinical isolates; type: cell-based; settings: clinical isolate
E. coli [22] = type: cell-based, Escherichia coli; settings: end of the experiment (up to 20 passages)
[23] = test system: Vancomycin-resistant Enterococci; settings: clinical isolate
P. aeruginosa [24] = assay: MBC against clinical isolates; type: cell-based; settings: clinical isolate
rabbit red blood cells = type: cell-based; settings: red cells of rabbit, 1 h
C. albicans [25] = test system: C. albicans
E. coli [26] = settings: 18 h; remark: listed apart in the source
trypsin and proteinase K = type: in vitro ADME
Method: One of the major factors limiting the clinical utility of AMPs lies in their instability to rapid degradation by proteases which are present abundantly in biological fluids and/or secreted by microorganisms. In order to evaluate the proteolytic stability of the designed β-sheet forming peptides, the D- and L-isoforms of the n=2 peptide sequence (IK8-all D or IK8-all L, respectively) were treated with the broad spectrum serine proteases, trypsin and proteinase K, for 6 h and evaluated their antimicrobial activities against S. aureus, E. coli and P. aeruginosa. […] The structural integrity of synthetic peptides following treatment with both proteases was also evaluated using MALDI-TOF mass spectroscopy. […] The cleavage sites of both enzymes for the IK8-all L peptide are illustrated in FIG. 19a with the mass spectra peaks assigned to the major fragments.

CC(C)[C@H](N)C(=O)N[C@@H](CCCNC(=N)N)C(=O)N[C@H](C(=O)N[C@@H](CCCCN)C(=O)N[C@H](C(=O)N[C@@H](CCCNC(=N)N)C(=O)N[C@H](C(=O)N[C@@H](CCCCN)C(=O)N[C@H](C(=O)N[C@@H](CCCNC(=N)N)C(=O)N[C@H](C(=O)N[C@@H](CCCCN)C(N)=O)C(C)C)C(C)C)C(C)C)C(C)C)C(C)C [(VRVK)3-NH2] (H-VRVKVRVKVRVK-NH2; N-terminus assumed)
viability at 24 h, 250 mg/L (in vitro [1]): 30%
viability at 24 h, 250 µg/mL (in vitro [1]; HDF dermal fibroblast cells): > 53%
MIC S. epidermidis (S. epidermidis [2]): 1.0 µg/mL (≈ 0.683 µM)
GM, geometric mean of MIC values for the 5 microorganisms tested [3]: 34.6 µg/mL
viability at 24 h, 250 µg/mL (in vitro [4]): > 53%
MIC E. coli (E. coli [5]): 15.6 µg/mL (≈ 10.6 µM)
MIC S. aureus (S. aureus [6]): 62.5 µg/mL (≈ 42.7 µM)
MIC C. albicans (C. albicans [7]): 31.3 µg/mL (≈ 21.4 µM)
MIC P. aeruginosa (P. aeruginosa [8]): 62.5 µg/mL (≈ 42.7 µM)

CC[C@H](C)[C@H](N)C(=O)N[C@@H](CCCNC(=N)N)C(=O)N[C@H](C(=O)N[C@@H](CCCCN)C(=O)N[C@H](C(=O)N[C@@H](CCCNC(=N)N)C(=O)N[C@H](C(=O)N[C@@H](CCCCN)C(=O)N[C@H](C(=O)N[C@@H](CCCNC(=N)N)C(=O)N[C@H](C(=O)N[C@@H](CCCCN)C(N)=O)[C@@H](C)CC)[C@@H](C)CC)[C@@H](C)CC)[C@@H](C)CC)[C@@H](C)CC [(IRIK)3-NH2] (H-IRIKIRIKIRIK-NH2; N-terminus assumed)
viability at 24 h, 125 µg/mL (in vitro [1]; HDF dermal fibroblast cells): > 80%
MIC S. epidermidis (S. epidermidis [2]): 1.0 µg/mL (≈ 0.646 µM)
GM, geometric mean of MIC values for the 5 microorganisms tested [3]: 162.7 µg/mL
viability at 24 h, 125 µg/mL (in vitro [4]): > 80%
MIC E. coli (E. coli [5]): 125 µg/mL (≈ 80.7 µM)
MIC S. aureus (S. aureus [6]): 62.5 µg/mL (≈ 40.3 µM)
MIC C. albicans (C. albicans [7]): 125 µg/mL (≈ 80.7 µM)
MIC P. aeruginosa (P. aeruginosa [8]): 500 µg/mL (≈ 323 µM)
nitrite concentration, LPS-stimulated NO production [9]: reduced to the control level

CC[C@@H](C)[C@@H](N)C(=O)N[C@H](CCCNC(=N)N)C(=O)N[C@@H](C(=O)N[C@H](CCCCN)C(=O)N[C@@H](C(=O)N[C@H](CCCNC(=N)N)C(=O)N[C@@H](C(=O)N[C@H](CCCCN)C(N)=O)[C@H](C)CC)[C@H](C)CC)[C@H](C)CC [IK8-all D, irikirik-NH2] (H-[dI][dR][dI][dK][dI][dR][dI][dK]-NH2; N-terminus assumed)
surface morphology under FE-SEM [10]: significant membrane damage and corrugation
log reductions in intracellular S. aureus colony counts compared to the control [11]: 1.2-1.5 log
killing efficiencies [12]: > 99.9%
log reductions in colony counts [12]; 2: more than 3 log
MBC Methicillin-resistant S. aureus [13]: 3.9 µg/mL (≈ 3.76 µM)
MIC S. epidermidis (S. epidermidis [14]): 2.0 µg/mL (≈ 1.93 µM)
MIC M. tuberculosis ([15]; strain number 1140): 15.6 µg/mL (≈ 15 µM)
MIC M. tuberculosis ([15]; strain number 1146): 15.6 µg/mL (≈ 15 µM)
MIC S. aureus (S. aureus [16]): 3.9 µg/mL (≈ 3.76 µM)
MBC A. baumanni (A. baumanni): 31.3 µg/mL (≈ 30.1 µM)
GM, geometric mean of MIC values for the 5 microorganisms tested [17]: 4.3 µg/mL
fold reduction in MIC values compared with the L-enantiomer ([17]; against the various bacteria): 2-16 fold
folds reduction in MBCs compared with the L-enantiomer [18]: 4-8 folds
MICn/MIC0, fold increase in MIC (S. aureus [19]): 1
viability at 48 h (in vitro [20]): > 80%
MIC P aeruginosa (P. aeruginosa [21]): 7.8 µg/mL (≈ 7.51 µM)
MBC C. neoformans (C. neoformans): 7.8 µg/mL (≈ 7.51 µM)
MICn/MIC0 (E. coli [22]): 1
MBC Vancomycin-resistant Enterococci [23]: 3.9 µg/mL (≈ 3.76 µM)
MBC P. aeruginosa (P. aeruginosa [24]): 15.6 µg/mL (≈ 15 µM)
HC10, haemolysis concentration 10%: lowest peptide concentration that induces ≧10% haemolysis (rabbit red blood cells): 1750 mg/L
MIC C. albicans (C. albicans [25]): 3.9 µg/mL (≈ 3.76 µM)
MIC E. coli (E. coli [26]): 3.9 µg/mL (≈ 3.76 µM)
antimicrobial activity after protease treatment (trypsin and proteinase K): retained its antibacterial activities
structural integrity after protease treatment, MALDI-TOF MS (trypsin and proteinase K): remained intact

Reference: patent publication US9221875B2, “Amphiphilic peptides for treatment of keratitis” (Agency for Science, Technology and Research, priority 2013, dated 2015)
